Test results reported in ChEMBL document CHEMBL1145395, “De novo design of selective antibiotic peptides by incorporation of unnatural amino acids” (J Med Chem, 2007).
≈ marks a conversion by molar mass, not a printed value. Calls of active or inactive are those of the source. No cut-off for these calls is given here. Non-standard residues stand in square brackets, D forms with d. Residues, ends and D or L forms follow the SMILES beside them. ξ: configuration not given here. Phe(4-NO2) = N[C@@H](Cc1ccc([N+](=O)[O-])cc1)C(=O)O; Pro(3ξ,4ξ-(CH2)4) = O=C(O)[C@H]1NCC2CCCCC21; Oic = O=C(O)[C@@H]1C[C@@H]2CCCC[C@@H]2N1; Tic = O=C(O)[C@@H]1Cc2ccccc2CN1; βAla = NCCC(=O)O

Tests used:
[1] = tested on: Staphylococcus aureus; experiment: Antibacterial activity against methicillin/gentamicin/tetracycline resistant Staphylococcus aureus ATCC 33592; assay type: functional
[2] = tested on: Salmonella typhimurium; experiment: Antibacterial activity against Salmonella Typhimurium ATCC 13311; assay type: functional, Salmonella enterica subsp. enterica serovar Typhimurium; details: Salmonella enterica
[3] = tested on: Mycobacterium; experiment: Antibacterial activity against Mycobacterium ranae ATCC 110; assay type: functional
[4] = Toxicity to mouse RBC assessed as hemolytic activity at 100 uM; assay type: cell-based, Erythrocyte; details: red blood cells, read-out: Activity

| SMILES | MIC [1] [µM] | MIC [2] [µM] | MIC [3] [µM] | hemolysis at 100 µM [4] [%] | other results |
| --- | --- | --- | --- | --- | --- |
| CC(=O)NCC(=O)N[C@H](Cc1ccccc1)C(=O)N1Cc2ccccc2C[C@H]1C(=O)N1[C@H](C(=O)NCC(=O)N[C@@H](CCCCN)C(=O)N2Cc3ccccc3C[C@H]2C(=O)N2[C@H](C(=O)NCC(=O)N[C@H](Cc3ccccc3)C(=O)N3Cc4ccccc4C[C@H]3C(=O)N3[C@H](C(=O)NCC(=O)N[C@@H](CCCCN)C(=O)N4Cc5ccccc5C[C@H]4C(=O)N[C@@H](CCCCN)C(=O)N[C@@H](CCCCN)C(=O)N[C@@H](CCCCN)C(=O)N[C@@H](CCCCN)C(N)=O)C[C@@H]4CCCC[C@@H]43)C[C@@H]3CCCC[C@@H]32)C[C@@H]2CCCC[C@@H]21 (Ac-G[dF][Tic][Oic]GK[Tic][Oic]G[dF][Tic][Oic]GK[Tic]KKKK-NH2) | 3 (≈ 7.32 µg/mL) | 10 (≈ 24.4 µg/mL) | 10 (≈ 24.4 µg/mL) |  |  |
| CC(C)C[C@H](NC(=O)CNC(=O)[C@H](CCCCN)NC(=O)CN)C(=O)N1Cc2ccccc2C[C@H]1C(=O)N1CC2CCCCC2[C@H]1C(=O)NCC(=O)N[C@@H](CCCCN)C(=O)N1Cc2ccccc2C[C@H]1C(=O)N1CC2CCCCC2[C@H]1C(=O)NCC(=O)N[C@@H](Cc1ccccc1)C(=O)N1Cc2ccccc2C[C@H]1C(=O)N1CC2CCCCC2[C@H]1C(=O)NCC(=O)N[C@@H](CCCCN)C(=O)N1Cc2ccccc2C[C@H]1C(=O)N1CC2CCCCC2[C@H]1C(=O)NCC(=O)N[C@@H](Cc1ccccc1)C(=O)N1Cc2ccccc2C[C@H]1C(=O)N1CC2CCCCC2[C@H]1C(=O)NCC(=O)N[C@@H](CCCCN)C(=O)N1Cc2ccccc2C[C@H]1C(=O)N1CC2CCCCC2[C@H]1C(=O)NCC(=O)N[C@@H](CCCCN)C(=O)N[C@@H](CCCNC(=N)N)C(N)=O (stereo partly specified) (H-GKGL[Tic][Pro(3ξ,4ξ-(CH2)4)]GK[Tic][Pro(3ξ,4ξ-(CH2)4)]GF[Tic][Pro(3ξ,4ξ-(CH2)4)]GK[Tic][Pro(3ξ,4ξ-(CH2)4)]GF[Tic][Pro(3ξ,4ξ-(CH2)4)]GK[Tic][Pro(3ξ,4ξ-(CH2)4)]GKR-NH2) |  |  |  | 33.4 |  |
| CC(=O)NCC(=O)N[C@@H](Cc1ccccc1)C(=O)N1Cc2ccccc2C[C@H]1C(=O)N1[C@H](C(=O)NCC(=O)N[C@H](CCCCN)C(=O)N2Cc3ccccc3C[C@H]2C(=O)N2[C@H](C(=O)NCC(=O)N[C@@H](Cc3ccccc3)C(=O)N3Cc4ccccc4C[C@H]3C(=O)N3[C@H](C(=O)NCC(=O)N[C@H](CCCCN)C(=O)N4Cc5ccccc5C[C@H]4C(=O)N[C@@H](CCCCN)C(=O)N[C@@H](CCCCN)C(=O)N[C@@H](CCCCN)C(=O)N[C@@H](CCCCN)C(N)=O)C[C@@H]4CCCC[C@@H]43)C[C@@H]3CCCC[C@@H]32)C[C@@H]2CCCC[C@@H]21 (Ac-GF[Tic][Oic]G[dK][Tic][Oic]GF[Tic][Oic]G[dK][Tic]KKKK-NH2) | 10 (≈ 24.4 µg/mL) | 10 (≈ 24.4 µg/mL) | 10 (≈ 24.4 µg/mL) |  |  |
| CSCC[C@H](NC(=O)[C@H](CC(C)C)NC(=O)[C@H](CCC(=O)O)NC(=O)[C@@H]1C[C@@H]2CCCC[C@@H]2N1C(=O)[C@@H]1Cc2ccccc2CN1C(=O)[C@H](Cc1ccccc1)NC(=O)CCNC(=O)[C@@H]1C[C@@H]2CCCC[C@@H]2N1C(=O)[C@@H]1Cc2ccccc2CN1C(=O)[C@H](CCCCN)NC(=O)CCNC(=O)[C@@H]1C[C@@H]2CCCC[C@@H]2N1C(=O)[C@@H]1Cc2ccccc2CN1C(=O)[C@H](Cc1ccccc1)NC(=O)CCNC(=O)[C@@H]1C[C@@H]2CCCC[C@@H]2N1C(=O)[C@@H]1Cc2ccccc2CN1C(=O)[C@H](CCCCN)NC(=O)CCNC(=O)[C@@H]1C[C@@H]2CCCC[C@@H]2N1C(=O)[C@@H]1Cc2ccccc2CN1C(=O)[C@H](CC(C)C)NC(=O)CNC(=O)[C@H](CCCCN)NC(=O)CN)C(=O)N[C@@H](CC(N)=O)C(=O)N[C@@H](CO)C(N)=O (H-GKGL[Tic][Oic][βAla]K[Tic][Oic][βAla]F[Tic][Oic][βAla]K[Tic][Oic][βAla]F[Tic][Oic]ELMNS-NH2) |  |  |  | 55 |  |
| CC(C)C[C@H](NC(=O)CNC(=O)[C@H](CCCCN)NC(=O)CN)C(=O)N1Cc2ccccc2C[C@H]1C(=O)N1CC2CCCCC2[C@H]1C(=O)NCC(=O)N[C@@H](CCCCN)C(=O)N1Cc2ccccc2C[C@H]1C(=O)N1CC2CCCCC2[C@H]1C(=O)NCC(=O)N[C@@H](CC(C)C)C(=O)N1Cc2ccccc2C[C@H]1C(=O)N1CC2CCCCC2[C@H]1C(=O)NCC(=O)N[C@@H](CCCCN)C(=O)N1Cc2ccccc2C[C@H]1C(=O)N1CC2CCCCC2[C@H]1C(=O)NCC(=O)N[C@@H](CC(C)C)C(=O)N1Cc2ccccc2C[C@H]1C(=O)N1CC2CCCCC2[C@H]1C(=O)NCC(=O)N[C@@H](CCCCN)C(=O)N1Cc2ccccc2C[C@H]1C(=O)N1CC2CCCCC2[C@H]1C(=O)NCC(=O)N[C@@H](CCCCN)C(=O)N[C@@H](CCCNC(=N)N)C(N)=O (stereo partly specified) (H-GKGL[Tic][Pro(3ξ,4ξ-(CH2)4)]GK[Tic][Pro(3ξ,4ξ-(CH2)4)]GL[Tic][Pro(3ξ,4ξ-(CH2)4)]GK[Tic][Pro(3ξ,4ξ-(CH2)4)]GL[Tic][Pro(3ξ,4ξ-(CH2)4)]GK[Tic][Pro(3ξ,4ξ-(CH2)4)]GKR-NH2) |  |  |  | 100 |  |
| CC(C)C[C@H](NC(=O)CNC(=O)[C@H](CCCCN)NC(=O)CN)C(=O)N1Cc2ccccc2C[C@H]1C(=O)N1[C@H](C(=O)NCC(=O)N[C@@H](CCCNC(=N)N)C(=O)N2Cc3ccccc3C[C@H]2C(=O)N2[C@H](C(=O)NCC(=O)N[C@@H](Cc3ccccc3)C(=O)N3Cc4ccccc4C[C@H]3C(=O)N3[C@H](C(=O)NCC(=O)N[C@@H](CCCNC(=N)N)C(=O)N4Cc5ccccc5C[C@H]4C(=O)N4[C@H](C(=O)NCC(=O)N[C@@H](Cc5ccccc5)C(=O)N5Cc6ccccc6C[C@H]5C(=O)N5[C@H](C(=O)NCC(=O)N[C@@H](CCCNC(=N)N)C(=O)N6Cc7ccccc7C[C@H]6C(=O)N6[C@H](C(=O)NCC(=O)N[C@@H](CCCCN)C(=O)N[C@@H](CCCNC(=N)N)C(N)=O)C[C@@H]7CCCC[C@@H]76)C[C@@H]6CCCC[C@@H]65)C[C@@H]5CCCC[C@@H]54)C[C@@H]4CCCC[C@@H]43)C[C@@H]3CCCC[C@@H]32)C[C@@H]2CCCC[C@@H]21 (H-GKGL[Tic][Oic]GR[Tic][Oic]GF[Tic][Oic]GR[Tic][Oic]GF[Tic][Oic]GR[Tic][Oic]GKR-NH2) |  |  |  | 100 |  |
| CSCC[C@H](NC(=O)[C@H](CC(C)C)NC(=O)[C@H](CCC(=O)O)NC(=O)[C@@H]1C[C@@H]2CCCC[C@@H]2N1C(=O)[C@@H]1Cc2ccccc2CN1C(=O)[C@H](Cc1ccccc1)NC(=O)CNC(=O)[C@@H]1C[C@@H]2CCCC[C@@H]2N1C(=O)[C@@H]1Cc2ccccc2CN1C(=O)[C@H](CCCNC(=N)N)NC(=O)CNC(=O)[C@@H]1C[C@@H]2CCCC[C@@H]2N1C(=O)[C@@H]1Cc2ccccc2CN1C(=O)[C@H](Cc1ccccc1)NC(=O)CNC(=O)[C@@H]1C[C@@H]2CCCC[C@@H]2N1C(=O)[C@@H]1Cc2ccccc2CN1C(=O)[C@H](CCCNC(=N)N)NC(=O)CNC(=O)[C@@H]1C[C@@H]2CCCC[C@@H]2N1C(=O)[C@@H]1Cc2ccccc2CN1C(=O)[C@H](CC(C)C)NC(=O)CNC(=O)[C@H](CCCCN)NC(=O)CN)C(=O)N[C@@H](CC(N)=O)C(=O)N[C@@H](CO)C(N)=O (H-GKGL[Tic][Oic]GR[Tic][Oic]GF[Tic][Oic]GR[Tic][Oic]GF[Tic][Oic]ELMNS-NH2) |  |  |  | 70 |  |
| CC(C)C[C@H](NC(=O)CNC(=O)[C@H](CCCCN)NC(=O)CN)C(=O)N1Cc2ccccc2C[C@H]1C(=O)N1CC2CCCCC2[C@H]1C(=O)N[C@@H](Cc1ccccc1)C(=O)N[C@@H](CCCCN)C(=O)N1Cc2ccccc2C[C@H]1C(=O)N1CC2CCCCC2[C@H]1C(=O)N[C@@H](CCCCN)C(=O)N[C@@H](Cc1ccccc1)C(=O)N1Cc2ccccc2C[C@H]1C(=O)N1CC2CCCCC2[C@H]1C(=O)N[C@@H](Cc1ccccc1)C(=O)N[C@@H](CCCCN)C(=O)N1Cc2ccccc2C[C@H]1C(=O)N1CC2CCCCC2[C@H]1C(=O)N[C@@H](CCCCN)C(=O)N[C@@H](Cc1ccccc1)C(=O)N1Cc2ccccc2C[C@H]1C(=O)N1CC2CCCCC2[C@H]1C(=O)N[C@@H](Cc1ccccc1)C(=O)N[C@@H](CCCCN)C(=O)N1Cc2ccccc2C[C@H]1C(=O)N1CC2CCCCC2[C@H]1C(=O)N[C@@H](Cc1ccccc1)C(=O)N[C@@H](CCCCN)C(=O)N[C@@H](CCCNC(=N)N)C(N)=O (stereo partly specified) (H-GKGL[Tic][Pro(3ξ,4ξ-(CH2)4)]FK[Tic][Pro(3ξ,4ξ-(CH2)4)]KF[Tic][Pro(3ξ,4ξ-(CH2)4)]FK[Tic][Pro(3ξ,4ξ-(CH2)4)]KF[Tic][Pro(3ξ,4ξ-(CH2)4)]FK[Tic][Pro(3ξ,4ξ-(CH2)4)]FKR-NH2) |  |  |  | 100 |  |
| CC(=O)NCC(=O)N[C@@H](Cc1ccc([N+](=O)[O-])cc1)C(=O)N1Cc2ccccc2C[C@H]1C(=O)N1CC2CCCCC2[C@H]1C(=O)NCC(=O)N[C@@H](CCCCN)C(=O)N1Cc2ccccc2C[C@H]1C(=O)N1CC2CCCCC2[C@H]1C(=O)NCC(=O)N[C@@H](Cc1ccc([N+](=O)[O-])cc1)C(=O)N1Cc2ccccc2C[C@H]1C(=O)N1CC2CCCCC2[C@H]1C(=O)NCC(=O)N[C@@H](CCCCN)C(=O)N1Cc2ccccc2C[C@H]1C(=O)N[C@@H](CCCCN)C(=O)N[C@@H](CCCCN)C(=O)N[C@@H](CCCCN)C(=O)N[C@@H](CCCCN)C(N)=O (stereo partly specified) (Ac-G[Phe(4-NO2)][Tic][Pro(3ξ,4ξ-(CH2)4)]GK[Tic][Pro(3ξ,4ξ-(CH2)4)]G[Phe(4-NO2)][Tic][Pro(3ξ,4ξ-(CH2)4)]GK[Tic]KKKK-NH2) | 10 (≈ 25.3 µg/mL) | 30 (≈ 75.9 µg/mL) | 10 (≈ 25.3 µg/mL) |  |  |
| CC(C)C[C@@H](NC(=O)CNC(=O)[C@H](CCCCN)NC(=O)CN)C(=O)N1Cc2ccccc2C[C@H]1C(=O)N1CC2CCCCC2[C@H]1C(=O)N[C@@H](Cc1ccccc1)C(=O)N[C@@H](CCCN)C(=O)N1Cc2ccccc2C[C@H]1C(=O)N1CC2CCCCC2[C@H]1C(=O)N[C@H](CCCCN)C(=O)N[C@@H](Cc1ccccc1)C(=O)N1Cc2ccccc2C[C@H]1C(=O)N1CC2CCCCC2[C@H]1C(=O)N[C@@H](Cc1ccccc1)C(=O)N[C@@H](CCCCN)C(=O)N1Cc2ccccc2C[C@H]1C(=O)N1CC2CCCCC2[C@H]1C(=O)N[C@@H](CCCCN)C(=O)N[C@@H](Cc1ccccc1)C(=O)N1Cc2ccccc2C[C@H]1C(=O)N1CC2CCCCC2[C@H]1C(=O)N[C@H](Cc1ccccc1)C(=O)N[C@@H](CCCCN)C(=O)N1Cc2ccccc2C[C@H]1C(=O)N1CC2CCCCC2[C@H]1C(=O)N[C@@H](Cc1ccccc1)C(=O)N[C@@H](CCCCN)C(=O)N[C@@H](CCCNC(=N)N)C(N)=O (stereo partly specified) |  |  |  |  | Activity [3]: inactive |
